The values that follow are results of earlier work, collected in patent US8536188B2, “Dosing regimens for treatment of proliferative disorders comprising administration of sapacitabine” (Cyclacel Limited, priority 2007, dated 2013).

The target in one data set is cytidine deaminase (Homo sapiens, UniProt P32320). The note with it: compared with ara-C.
Data set [1] has as its system human tumour cells from various organs.
For another data set, the system named is CTCL. The conditions noted are these: CTCL patients.
The next data set relates to colon cancer. The note with it: model of colon cancer.
Data set [2] relates to cancer cell lines, including those lacking deoxycytidine kinase. The conditions noted are these: variety of cancer cell lines.
The subject of data set [3] is ara-C-resistant tumour cell lines.
The conditions of data set [4]: in vivo.
For data set [5] the following is noted: single dose in rodents; repeat dose up to 3 months in mice and dogs.
For data set [6] the following is noted: phase I, patients with a variety of cancers.
The test system of a further data set is NSCLC. The conditions noted are these: 10 mg/m^2 intravenously over 30 minutes every three weeks.

Sequence of cytidine deaminase (P32320 whole entry, species assumed): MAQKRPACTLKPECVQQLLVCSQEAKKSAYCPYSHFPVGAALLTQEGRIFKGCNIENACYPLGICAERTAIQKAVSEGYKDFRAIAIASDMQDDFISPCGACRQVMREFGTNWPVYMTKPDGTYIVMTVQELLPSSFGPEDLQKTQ

Turning to `N#C[C@H]1[C@H](O)[C@@H](CO)O[C@H]1n1ccc(N)nc1=O` [CNDAC, 2′-C-Cyano-2′-deoxy-β-D-arabino-pentafuranosylcytosine], on cytidine deaminase, the “substrate of cytidine deaminase” value is “weak substrate”. In data set [1], the “activity against human tumour cells” value is “broad spectrum of activity”.

As for `N#CC1C(O)C(COP(=O)(O)OP(=O)(O)OP(=O)(O)O)OC1n1ccc(N)nc1=O` (centres unmarked) [CNDACTP, CNDAC-triphosphate], in the data set with DNA polymerase, the “inhibition of DNA polymerase” value is on record as “potent inhibition”.

For the molecule `Nc1ccn([C@@H]2O[C@H](CO)[C@@H](O)C2(F)F)c(=O)n1` [Gemcitabine, gemcitabine], the response rate with CTCL was 60-70%.

As for `CCCCCCCCCCCCCCCC(=O)Nc1ccn([C@@H]2O[C@H](CO)[C@@H](O)[C@@H]2C#N)c(=O)n1` [sapacitabine, 2′-cyano-2′-deoxy-N^4-palmitoyl-1-β-D-arabinofuranosylcytosine], in the data set on colon cancer, the anticancer activity result is “strong anticancer activity”; the “increasing survival, compared with gemcitabine or 5-FU” value is given as “superior to either gemcitabine or 5-FU”; the “preventing the spread of colon cancer metastases to the liver, compared with gemcitabine or 5-FU” value is on record as “superior to either gemcitabine or 5-FU”. Further, in the data set on P388 leukemia (P388 resistant to mitomycin C, vincristine, 5-FU or cisplatin), the “activity in vivo against resistant P388 leukemia cell lines” value is “active”. Moreover, in the data set with P388 leukemia (mouse P388 leukemia model), the “antitumour activity compared with 5′-DFUR and gemcitabine” value is “much more potent antitumour activity than 5′-DFUR and gemcitabine”. Moreover, the “cytotoxicity of the parent drug” value in data set [2] was “cytotoxic”. Besides, the “cross-resistance to ara-C-resistant tumour cell lines” value in data set [3] is given as “partial cross-resistance”. The “activity against human tumour cells” value in data set [1] is on record as “broad spectrum of activity”. For the same molecule, in data set [4], the oral bioavailability entry is “good”. For the same molecule, in the data set on human tumour xenograft (gastric, mammary, lung, colorectal and hepatic tumour xenografts), the “effect on tumour xenografts” value is “tumour regressions were observed”. The “antitumour activity compared with 5′-DFUR and gemcitabine” value in the data set with human tumour xenograft (human xenografts of poorly differentiated gastric adenocarcinoma) is “much more potent antitumour activity than 5′-DFUR and gemcitabine”. Moreover, the “antitumour activity in human tumour xenograft models” value in the data set on human tumour xenograft (variety of tumours) is given as “active against a variety of tumours”. Besides, the major toxicities entry in [5] was “hematopoietic, gastrointestinal, and testicular”. Also, in data set [6], the dose limiting toxicity entry is given as “myelosuppression” and the tolerability result is on record as “well tolerated”.

Take `Nc1ccn([C@@H]2CO[C@H](CO)O2)c(=O)n1` [troxacitabine]: the “activity in NSCLC” value in the data set with NSCLC was “little activity”.
